# Reference: ChEMBL document CHEMBL1201862, “PubChem BioAssay data set” (2004)
# Calls of active or inactive are those of the source.
# Assays:
# [1] = target: Induced myeloid leukemia cell differentiation protein Mcl-1 (Homo sapiens, UniProt Q07820); type: functional
# Melanocortin receptor 4 = Melanocortin receptor 4 (Homo sapiens, UniProt P32245); type: functional, cell-based;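 note: Cell-based assay with luminescence read-out, confirmatory dose-response testing for agonist activity of biased ligands at MC4R; human U2OS cells with tagged receptor and beta-arrestin; potency of agonists that increase receptor coupling to beta-arrestin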
# [2] = NIH-3T3 fibroblast cytotoxicity, dose response, cytotoxicity control, cell-based, fluorescence, Alamar Blue, secondary assay (AID 2327); type: functional;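 note: NIH-3T3 mouse fibroblasts cultured with fluconazole at 8 µg/mL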
# [3] = fluconazole-exposed Candida albicans growth modulators – fluorescence, retest, confirmation (AID 2467); type: functional, cell-based
# [4] = NIH3T3 cell viability loss – ATP luminescence, mouse fibroblasts, counter-screen, dose response (AID 2010); type: functional, cell-based;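 note: cells exposed to compound for about 90 hours before reading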
# [5] = Trypanosoma cruzi growth suppression in host cells – NIH3T3 host cells, beta-gal luminescence, confirmation (AID 2044); type: functional, cell-based;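 note: intracellular parasites grown in NIH/3T3 mouse fibroblasts as host cells; luminescent beta-galactosidase reporter signal from transgenic T. cruzi replicating inside host cells; inhibitors lower the luminescence signal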
# Paired box protein Pax-8 = Paired box protein Pax-8 (Homo sapiens, UniProt Q06710); test: PAX8 transcriptional activity inhibition in RMG-I – RMG-I cells, luciferase, cherry-pick, dose response (AID 687027); type: functional, cell-based;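 note: luciferase reporter driven by Pax8 target thyroperoxidase promoter measured by SteadyGlo luminescence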
# [6] = OVCAR-3 cell viability loss – plate reader, dry powder samples, PAX8 inhibitor project, dose response (AID 743044); type: functional, cell-based
# cells [7] = test: cells
# Major prion protein = Major prion protein (Homo sapiens, UniProt P04156); type: functional, cell-based
# Leucine aminopeptidase = target: T1, Leucine aminopeptidase (Plasmodium falciparum 3D7, UniProt Q8IL11); test: P. falciparum M17LAP inhibitors, primary screen, biochemical, fluorogenic H-Leu-NHMec substrate, 1536-well (AID 1619); type: functional
# T1 sequence (Q8IL11 whole entry): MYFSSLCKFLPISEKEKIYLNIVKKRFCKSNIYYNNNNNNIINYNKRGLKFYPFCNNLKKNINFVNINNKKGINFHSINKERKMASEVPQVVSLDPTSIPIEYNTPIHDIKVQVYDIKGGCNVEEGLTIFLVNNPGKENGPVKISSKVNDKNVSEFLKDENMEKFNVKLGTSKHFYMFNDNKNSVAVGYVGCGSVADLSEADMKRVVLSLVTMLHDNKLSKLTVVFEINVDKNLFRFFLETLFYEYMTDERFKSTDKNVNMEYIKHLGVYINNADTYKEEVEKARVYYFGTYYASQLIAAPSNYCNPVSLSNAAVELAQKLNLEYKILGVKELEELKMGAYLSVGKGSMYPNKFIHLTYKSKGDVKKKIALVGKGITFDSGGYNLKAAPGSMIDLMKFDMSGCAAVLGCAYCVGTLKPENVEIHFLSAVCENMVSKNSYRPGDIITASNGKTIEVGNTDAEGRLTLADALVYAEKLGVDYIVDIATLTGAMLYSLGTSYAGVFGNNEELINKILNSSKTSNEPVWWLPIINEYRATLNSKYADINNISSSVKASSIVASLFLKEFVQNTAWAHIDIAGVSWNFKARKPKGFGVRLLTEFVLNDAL
# [8] = target: Glyceraldehyde-3-phosphate dehydrogenase (Homo sapiens, UniProt P04406)
# [9] = target: T2, Alkaline phosphatase, tissue-nonspecific isozyme (Homo sapiens, UniProt P05186); test: potency against alkaline phosphatase TNAP – biochemical, luminescent, dose response, SAR follow-up (AID 1056)
# T2 sequence (P05186 whole entry): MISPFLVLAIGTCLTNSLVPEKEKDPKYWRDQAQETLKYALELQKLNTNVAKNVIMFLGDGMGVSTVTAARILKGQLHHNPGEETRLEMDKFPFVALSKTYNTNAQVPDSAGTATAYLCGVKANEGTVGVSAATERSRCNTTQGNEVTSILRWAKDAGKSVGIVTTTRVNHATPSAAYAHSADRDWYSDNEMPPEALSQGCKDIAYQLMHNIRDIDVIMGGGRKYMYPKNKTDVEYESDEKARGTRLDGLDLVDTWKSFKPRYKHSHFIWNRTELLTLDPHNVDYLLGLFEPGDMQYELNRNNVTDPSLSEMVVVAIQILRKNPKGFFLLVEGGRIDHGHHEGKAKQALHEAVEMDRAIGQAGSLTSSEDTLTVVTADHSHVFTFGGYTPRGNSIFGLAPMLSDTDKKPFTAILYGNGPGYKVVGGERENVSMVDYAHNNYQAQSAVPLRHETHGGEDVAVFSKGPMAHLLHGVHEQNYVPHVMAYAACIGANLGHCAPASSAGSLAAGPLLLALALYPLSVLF
# [10] = HIV-1 AD8 envelope cell-cell fusion blockers – cherry-pick, dose response (AID 652062); type: functional, cell-based;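 note: luciferase signal from cell-cell fusion driven by HIV-1 clade B AD8 Env; potency is for inhibitors of fusion seen as a drop in luminescence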
# [11] = blockers of HIV-1 envelope-mediated cell-cell fusion – cherry-pick, dose response (AID 652057); type: functional, cell-based
# [12] = off-target signal loss in HeLa-CEM21 co-culture – HeLa F-luc CTL cells, cherry-picked, counter-screen for HIV-1 Env fusion inhibitor project, dose response (AID 652040); type: functional, cell-based;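 note: potency for signal decrease marking cytotoxic or nonspecific inhibition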
# [13] = blockers of HIV-1 ZM109 envelope-driven cell-cell fusion – HeLa effector, CEM target cells, luciferase, cherry-pick, dose response (AID 652058); type: functional, cell-based;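 note: luciferase signal from HIV-1 Env mediated cell-cell fusion of effector and target cells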
# [14] = viability of uninfected HEp-2 cells – cell-based, HTS, cytotoxicity control for RSV inhibitor project, dose response (AID 2410); type: functional; settings: human respiratory syncytial virus
# cells [15] = test: cells; remark: listed apart in the source
# [16] = A Cell Based Secondary Assay To Explore Cytotoxicity of Compounds that Sensitize Mycobacterium Tuberculosis to Beta-Lactam Antibiotics.; type: functional
# [17] = target: T3, Heat shock factor protein 1 (Mus musculus, UniProt P38532); test: decrease of HSF1-responsive luciferase luminescence – cell-based, NIH3T3, dose retest, confirmation (AID 2382); type: functional;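 note: NIH3T3 fibroblasts with HSF1-driven luciferase reporter stressed by proteasome inhibitor MG132; luminescence from HSF1-driven luciferase expression after 8 hours of MG132 stress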
# T3 sequence (P38532 whole entry): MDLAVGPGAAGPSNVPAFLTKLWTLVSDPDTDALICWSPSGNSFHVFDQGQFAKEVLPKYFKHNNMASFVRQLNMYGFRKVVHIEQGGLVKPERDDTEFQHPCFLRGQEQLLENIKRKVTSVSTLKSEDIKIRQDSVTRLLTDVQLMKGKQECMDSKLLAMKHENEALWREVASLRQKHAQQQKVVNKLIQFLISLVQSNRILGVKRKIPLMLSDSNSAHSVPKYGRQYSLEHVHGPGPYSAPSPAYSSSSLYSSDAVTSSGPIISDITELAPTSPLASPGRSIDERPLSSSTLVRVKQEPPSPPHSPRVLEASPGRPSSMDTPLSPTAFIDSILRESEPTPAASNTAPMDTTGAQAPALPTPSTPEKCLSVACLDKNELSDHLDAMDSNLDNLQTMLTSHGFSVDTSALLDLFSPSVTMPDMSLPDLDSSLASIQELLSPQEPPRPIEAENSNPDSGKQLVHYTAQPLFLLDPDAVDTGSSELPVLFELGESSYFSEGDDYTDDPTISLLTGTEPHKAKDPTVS
# [18] = target: Heat shock protein HSP 90-alpha (Homo sapiens, UniProt P07900); type: functional, organism-based
# [19] = non-specific 3'UTR reporter inhibition in Clone20-Shn3RL – cell-based, Renilla luciferase, cherry-picked, counter-screen for Shn3 inhibitor project, dose response (AID 624133); type: functional
# [20] = reduction of Shn3 3'UTR-driven luciferase in osteoblasts – cell-based, Clone20 osteoblasts, firefly luciferase, cherry-picked, dose response (AID 624132); type: functional;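 note: firefly luciferase luminescence from reporter carrying the Shn3 3'UTR in osteoblasts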
# [21] = loss of viability in HepG2 cells – cell-based, CellTiter-Glo, cherry-picked, cytotoxicity control for Shn3 inhibitor project, dose response (AID 624134); type: functional
# Cytochrome P450 3A4 = Cytochrome P450 3A4 (Homo sapiens, UniProt P08684);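 note: CYP3A4 tested as one member of a cytochrome P450 panel screen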
# [22] = HEK-293T cell viability reduction – luminescence, B-cell screen hits, cytotoxicity control for BCR NF-kB inhibitor project, dose response (AID 489021); type: functional, cell-based;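 note: HEK-293T cells carrying an NF-kB luciferase reporter; cells exposed to compound for about 14 hours before viability readout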
# [23] = alpha-synuclein stem-loop luciferase translation blockers – H4 neuroglioma cells, luminescence, confirmation (AID 1988); type: functional, cell-based
# [24] = luciferase reporter signal suppression in cells – H4 neuroglioma cells, luminescence, dose response (AID 1990); type: functional, cell-based
# [25] = Luminescence Cell-Based Dose Response HTS to Identify Inhibitors of 5'UTR Stem-Loop Driven Prion Protein mRNA Translation in H4 Neuroglioblastoma Cells. [Related pubchem assays: 1827 (Project Summary), 1813 (Primary HTS)]; type: functional
smiles,measurement,setting,value
Oc1ccc(N2CCN(c3ncnc4sc(-c5ccccc5)cc34)CC2)cc1,IC50,[1],1.43 µM (active)
same,EC50,Melanocortin receptor 4,> 89.2 µM (inactive)
same,EC50,[2],> 160 µM (inactive)
same,EC50,[3],1.21 µM (active)
same,EC50,[4],> 60 µM (not active)
same,EC50,[5],3.78 µM (active)
C[C@H]1CN([C@@H](C)CO)S(=O)(=O)c2ccc(C#Cc3ccc(F)cc3)cc2O[C@@H]1CN(C)C(=O)NC1CCCCC1,AC50,Paired box protein Pax-8,6.32 µM (active)
same,AC50,[6],37.8 µM (active)
Fc1cccc(Cc2c(-c3ccco3)nc3ccc(Br)cn23)c1,IC50,cells [7],> 138 µM (inactive)
same,IC50,Major prion protein,6.29 µM (active)
O=C(CN1C(=O)c2ccccc2S1(=O)=O)NCCSCc1ccco1,IC50,Leucine aminopeptidase,16.2 µM (active)
O=C1c2ccccc2C(=O)N1c1nc(-c2cccnc2)n[nH]1,IC50,[8],> 100 µM (not active)
same,IC50,[9],> 100 µM (inactive)
Cc1cc2ncn(CC(=O)c3ccc(O)c(O)c3)c2cc1C,IC50,[9],> 100 µM (inactive)
Cc1ccc(C2C(C#N)=C(N)SC(N)=C2C#N)cc1,IC50,cells [7],> 138 µM (inactive)
same,IC50,Major prion protein,1.86 µM (active)
CC1CCN(C(=O)c2ncn3c2C(=O)N[C@H](C)C3)CC1,AC50,[10],8.4 µM (active)
same,AC50,[11],4.8 µM (active)
same,AC50,[12],16.1 µM (active)
same,AC50,[13],26.6 µM (active)
COC(=O)c1ccc(C)c(NC(=O)CN2C(=O)c3ccccc3S2(=O)=O)c1,IC50,Leucine aminopeptidase,10 µM (active)
O=C(Nc1nnc(SCC(=O)N2CCCCC2)s1)c1cccs1,IC50,Leucine aminopeptidase,30.4 µM (active)
O=C(O)c1cccc(NC(=S)NC(=O)c2ccc(-c3ccc(Cl)cc3)o2)c1,CC50,[14],27.8 µM (active)
same,IC50,cells [15],11.4 µM (active)
CN(C)S(=O)(=O)Oc1ccsc1C(=O)Nc1ccc(C(F)(F)F)cc1,CC50,[16],> 40 µM (active)
NNC(=O)c1cc(-c2ccc(Cl)c(Cl)c2Cl)n[nH]1,IC50,[8],> 10 µM (inconclusive)
same,IC50,[9],0.633 µM (active)
COc1ccc2[nH]c(C(=O)Nc3ccc(C)c(F)c3)cc2c1,IC50,cells [7],> 138 µM (inactive)
same,IC50,Major prion protein,10.5 µM (inactive)
CC(C)(C)c1nn(-c2ccccc2)c2nc(O)c(CNc3ccc4c(c3)OCCO4)cc12,EC50,[17],83.3 µM (active)
same,CC50,[16],> 40 µM (active)
same,AC50,[18],8.3 µM (active)
O=C(O)c1cccc(C(=O)Cc2ccccc2)c1,IC50,Leucine aminopeptidase,17.5 µM (active)
Cc1c(CCO)c(O)oc2nnc(-c3ccccc3)c1-2,IC50,[8],> 100 µM (not active)
same,IC50,[9],> 100 µM (inactive)
CCN(C(=O)c1cc2cc3ccc(C)cc3nc2o1)c1ccc(OC)cc1,CC50,[14],> 50 µM (active)
same,IC50,cells [15],33 µM (active)
OC1(c2ccc(OC(F)F)cc2)CS/C(=N\c2cccnc2)N1C1CC1 (stereo unspecified),AC50,[19],29.4 µM (active)
same,AC50,[10],0.464 µM (active)
same,AC50,[20],5.4 µM (active)
same,AC50,[21],7.56 µM (active)
same,AC50,Cytochrome P450 3A4,0.794 µM (inconclusive)
same,AC50,[12],> 70 µM (inactive)
same,AC50,[13],36.4 µM (active)
Cn1c(=O)c2nc(CNCc3ccccc3Cl)[nH]c2n(C)c1=O,CC50,[16],> 40 µM (active)
Cn1nc(-c2ccc(Cl)cc2)c2cc(C(=O)N3CCCC3)sc21,IC50,[22],> 80 µM (inactive)
CCc1nc(SCC(=O)Nc2nc3c(s2)CCCC3)c2ccccc2n1,IC50,cells [7],> 138 µM (inactive)
same,IC50,Major prion protein,6.97 µM (active)
CC1(C)CC(=O)c2c(n[nH]c2-c2cccs2)C1,IC50,[8],> 10 µM (inconclusive)
same,IC50,[9],5.65 µM (active)
Cn1c(=O)cc(OCCCC(=O)NCc2ccccn2)c2ccccc21,IC50,[22],> 80 µM (inactive)
CCOC(=O)[C@@H]1[C@H]2COc3ccc(Br)cc3[C@@H]2N2C(=O)N(c3ccccc3)C(=O)[C@@]12C,AC50,[10],22.9 µM (active)
same,AC50,[11],2.15 µM (active)
same,AC50,[12],5.09 µM (active)
same,AC50,[13],6.14 µM (active)
COc1cccc(/C=C2/SC(=S)N(CCCC(=O)Nc3ccc(O)cc3)C2=O)c1,IC50,[22],29 µM (inactive)
same,EC50,Melanocortin receptor 4,> 89.2 µM (inactive)
same,EC50,[23],16.3 µM (active)
same,EC50,[24],6.72 µM (active)
same,EC50,[25],8.15 µM (active)
COc1cccc(-c2ccc3c(c2)[C@H]2[C@H](CCN2C(=O)NC2CCCCC2)[C@@H](CO)N3C)c1,AC50,Paired box protein Pax-8,10.6 µM (active)
same,AC50,[6],27.1 µM (active)
CN(C)CCC/N=C/c1c(-c2ccccc2)nn(-c2nc3ccccc3s2)c1O,IC50,[22],> 80 µM (inactive)
C=CCN1C(=O)NC(=O)/C(=C(\C)NC(C)c2ccccc2)C1=O (stereo unspecified),IC50,[22],> 80 µM (inactive)
COc1ccccc1NC(=O)Nc1ccc2c(c1)CCC2,CC50,[14],46.2 µM (active)
same,IC50,cells [15],40.5 µM (active)
